From US20240368135A1 (VERTEX PHARMACEUTICALS INCORPORATED, priority 2021, published 2024) come the findings set out here.

Read-outs that look alike come from different tables or passages of the source. Where only a bound is given, the exact number is not on record here.

This assay has as its target human NaV 1.8 (Homo sapiens, UniProt Q9Y5Y9). Kind of assay: E-VIPR assay detecting and measuring NaV inhibition properties. To be noted: HEK cells expressing truncated human NaV 1.8. It is filed as cell-based. An outline of the steps: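 Membrane potential was followed by coumarin/oxonol FRET during electrical field stimulation of matrigel-seeded HEK cells carrying truncated human NaV1.8 plus KIR2.1. Dosing used 11 points, 3-fold steps, top 300 nM final, 0.625% DMSO, with or without 25% human serum.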

Setting [1] is: no human serum, read-out: IC50 in the E-VIPR Assay.
Setting [2] is: in the presence of human serum (compound numbers followed by *), read-out: IC50 in the E-VIPR Assay, performed in the presence of human serum.

human NaV 1.8, sequence (Q9Y5Y9 126-399 limits assumed): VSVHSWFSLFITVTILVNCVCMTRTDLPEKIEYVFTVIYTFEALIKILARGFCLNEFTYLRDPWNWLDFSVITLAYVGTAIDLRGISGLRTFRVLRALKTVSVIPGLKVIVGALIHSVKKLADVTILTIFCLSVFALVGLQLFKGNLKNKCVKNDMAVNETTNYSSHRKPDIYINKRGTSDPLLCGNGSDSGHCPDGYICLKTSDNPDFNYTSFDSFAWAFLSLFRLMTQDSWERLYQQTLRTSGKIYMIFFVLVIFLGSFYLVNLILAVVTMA
human NaV 1.8, sequence (Q9Y5Y9 660-890 limits assumed): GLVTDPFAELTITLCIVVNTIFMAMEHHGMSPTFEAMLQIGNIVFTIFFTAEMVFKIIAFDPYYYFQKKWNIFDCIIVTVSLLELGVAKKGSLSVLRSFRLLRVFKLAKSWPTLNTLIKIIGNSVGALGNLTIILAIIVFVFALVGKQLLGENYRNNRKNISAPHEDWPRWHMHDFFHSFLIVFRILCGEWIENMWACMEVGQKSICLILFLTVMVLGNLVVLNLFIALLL
human NaV 1.8, sequence (Q9Y5Y9 1148-1722 limits assumed): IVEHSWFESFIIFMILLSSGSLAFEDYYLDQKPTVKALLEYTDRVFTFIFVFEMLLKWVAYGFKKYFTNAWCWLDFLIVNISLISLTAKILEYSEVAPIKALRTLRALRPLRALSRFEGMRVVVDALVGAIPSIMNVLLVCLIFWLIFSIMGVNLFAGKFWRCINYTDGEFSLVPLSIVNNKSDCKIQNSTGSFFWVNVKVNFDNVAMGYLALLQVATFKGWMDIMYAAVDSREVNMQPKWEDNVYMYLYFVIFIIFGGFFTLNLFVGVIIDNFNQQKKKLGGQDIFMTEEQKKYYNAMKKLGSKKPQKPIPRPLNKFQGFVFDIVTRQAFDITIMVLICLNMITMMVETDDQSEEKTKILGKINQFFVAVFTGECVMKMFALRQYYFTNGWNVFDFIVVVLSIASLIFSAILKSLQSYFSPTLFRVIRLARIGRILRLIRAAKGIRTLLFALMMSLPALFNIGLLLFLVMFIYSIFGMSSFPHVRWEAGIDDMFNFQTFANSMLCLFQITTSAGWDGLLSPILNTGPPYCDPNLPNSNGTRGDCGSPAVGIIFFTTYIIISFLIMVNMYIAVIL

Take `COCn1cnc(NC(=O)[C@@H]2O[C@@](C)(C(F)(F)F)[C@@H](C)[C@H]2c2ccc(F)c(F)c2OCCO)n1` [Compound 553, (2R,3S,4S,5R)-3-(3,4-difluoro-2-(2-hydroxyethoxy)phenyl)-N-(1-(methoxymethyl)-1H-1,2,4-triazol-3-yl)-4,5-dimethyl-5-(trifluoromethyl)tetrahydrofuran-2-carboxamide]: the IC50 (as a rule, the concentration that gives 50% inhibition) under setting [1] was at least 1 µM.
On to `COCCOc1cc(NC(=O)[C@@H]2O[C@@](C)(C(F)(F)F)[C@@H](C)[C@H]2c2ccc(F)c(F)c2OCCO)ccn1` [Compound 567, (2R,3S,4S,5R)-3-(3,4-difluoro-2-(2-hydroxyethoxy)phenyl)-N-(2-(2-methoxyethoxy)pyridin-4-yl)-4,5-dimethyl-5-(trifluoromethyl)tetrahydrofuran-2-carboxamide], for which the IC50 under setting [1] is under 0.01 µM.
Still for that read-out and setting: the value for `Cc1nn(C(F)F)cc1NC(=O)[C@@H]1O[C@@](C)(C(F)(F)F)[C@@H](C)[C@H]1c1ccc(F)c(F)c1CN(C)C` [Compound 672, (2R,3S,4S,5R)-N-(1-(difluoromethyl)-3-methyl-1H-pyrazol-4-yl)-3-(2-((dimethylamino)methyl)-3,4-difluorophenyl)-4,5-dimethyl-5-(trifluoromethyl)tetrahydrofuran-2-carboxamide] was 0.01 to 0.1 µM; that for `COc1c([C@H]2[C@H](C(=O)Nc3ccc(-c4ncc[nH]4)nc3)O[C@@](C)(C(F)(F)F)[C@H]2C)ccc(F)c1F` [Compound 193, (2R,3S,4S,5R)-N-(6-(1H-imidazol-2-yl)pyridin-3-yl)-3-(3,4-difluoro-2-methoxyphenyl)-4,5-dimethyl-5-(trifluoromethyl)tetrahydrofuran-2-carboxamide] was 0.01 to 0.1 µM; that for `Cc1nn(S(C)(=O)=O)cc1NC(=O)[C@@H]1O[C@@](C)(C(F)(F)F)[C@@H](C)[C@H]1c1ccc(F)c(F)c1OCCO` [Compound 538, (2R,3S,4S,5R)-3-(3,4-difluoro-2-(2-hydroxyethoxy)phenyl)-4,5-dimethyl-N-(3-methyl-1-(methylsulfonyl)-1H-pyrazol-4-yl)-5-(trifluoromethyl)tetrahydrofuran-2-carboxamide] was under 0.01 µM.
Regarding `COc1c(C2C(C(=O)Nc3ccnc(C(O)CO)c3)OC(C)(C(F)(F)F)C2C)ccc(F)c1F` (single isomer, unassigned) [Compound 44, 3-(3,4-difluoro-2-methoxy-phenyl)-N-[2-(1,2-dihydroxyethyl)-4-pyridyl]-4,5-dimethyl-5-(trifluoromethyl)tetrahydrofuran-2-carboxamide], the IC50 under setting [1] was under 0.01 µM.
Turning to `CCOc1c([C@@H]2[C@@H](C(=O)Nc3cncc(S(C)(=O)=O)c3)O[C@](C)(C(F)(F)F)[C@@H]2C)ccc(F)c1F` (stereo in doubt) [Compound 106, rel-(2S,3R,4R,5S)-3-(2-ethoxy-3,4-difluorophenyl)-4,5-dimethyl-N-(5-(methylsulfonyl)pyridin-3-yl)-5-(trifluoromethyl)tetrahydrofuran-2-carboxamide], the IC50 under setting [1] fell in the range of 0.1 to 1 µM.
Same read-out and setting: the value for `C[C@H]1[C@@H](c2ccc(F)c(F)c2OC(F)F)[C@H](C(=O)Nc2ccc(CCO)nc2)O[C@@]1(C)C(F)(F)F` (single isomer, unassigned) [Compound 460] was 0.01 to 0.1 µM.
On the same count and under the same terms, the value for `C=C(CO)COc1c([C@H]2[C@H](C(=O)Nc3cn(C(F)F)nc3C)O[C@@](C)(C(F)(F)F)[C@H]2C)ccc(F)c1F` [Compound 601, (2R,3S,4S,5R)-3-[3,4-difluoro-2-[2-(hydroxymethyl)allyloxy]phenyl]-N-[1-(difluoromethyl)-3-methyl-pyrazol-4-yl]-4,5-dimethyl-5-(trifluoromethyl)tetrahydrofuran-2-carboxamide] was under 0.01 µM.
Regarding `COc1cc(F)ccc1C1CC(C)(C(F)(F)F)OC1C(=O)Nc1ccnc(S(C)(=N)=O)c1` (stereo not drawn) [Compound 715, 3-(4-fluoro-2-methoxy-phenyl)-5-methyl-N-[2-(methylsulfonimidoyl)-4-pyridyl]-5-(trifluoromethyl)tetrahydrofuran-2-carboxamide], the IC50 under setting [2] is 0.1 to 1 µM.
With `COCCCOc1c([C@H]2[C@H](C(=O)Nc3ccnc(CO)c3)O[C@@](C)(C(F)(F)F)[C@H]2C)ccc(F)c1F` [Compound 642, (2R,3S,4S,5R)-3-(3,4-difluoro-2-(3-methoxypropoxy)phenyl)-N-(2-(hydroxymethyl)pyridin-4-yl)-4,5-dimethyl-5-(trifluoromethyl)tetrahydrofuran-2-carboxamide], the IC50 under setting [1] is under 0.01 µM.
In the case of `COc1c([C@H]2[C@H](C(=O)Nc3cnc(CCO)n3C)O[C@@](C)(C(F)(F)F)[C@H]2C)ccc(F)c1F` [Compound 445, (2R,3S,4S,5R)-3-(3,4-difluoro-2-methoxyphenyl)-N-(2-(2-hydroxyethyl)-1-methyl-1H-imidazol-5-yl)-4,5-dimethyl-5-(trifluoromethyl)tetrahydrofuran-2-carboxamide], the IC50 under setting [1] is at least 1 µM.
Still for that read-out and setting: the value for `COc1c([C@H]2[C@H](C(=O)Nc3ccc(C(N)=O)nc3)O[C@@](C)(C(F)(F)F)[C@H]2C)cccc1C(F)(F)F` (stereo in doubt) [Compound 156, rel-5-((2R,3S,4S,5R)-3-(2-methoxy-3-(trifluoromethyl)phenyl)-4,5-dimethyl-5-(trifluoromethyl)tetrahydrofuran-2-carboxamido)picolinamide] was under 0.01 µM; that for `C[C@@H]1[C@H](c2ccc(F)c(F)c2OC(F)F)[C@@H](C(=O)Nc2ccnc(CO)c2)O[C@]1(C)C(F)(F)F` (single isomer, unassigned) [Compound 91] was at least 1 µM; that for `COc1c(C2C(C(=O)Nc3ccn4nnnc4c3)OC(C)(C(F)(F)F)C2C)ccc(F)c1C` (racemic) [Compound 132, 3-(4-fluoro-2-methoxy-3-methyl-phenyl)-4,5-dimethyl-N-(tetrazolo[1,5-a]pyridin-7-yl)-5-(trifluoromethyl)tetrahydrofuran-2-carboxamide] was under 0.01 µM.
In the case of `COc1c([C@H]2[C@H](C(=O)Nc3cc(C(O)CO)ncc3F)O[C@@](C)(C(F)(F)F)[C@H]2C)ccc(F)c1F` (single isomer, unassigned) [Compound 199, rel-(2R*,3S*,4S*,5R*)-3-(3,4-difluoro-2-methoxyphenyl)-N-(2-(-1,2-dihydroxyethyl)-5-fluoropyridin-4-yl)-4,5-dimethyl-5-(trifluoromethyl)tetrahydrofuran-2-carboxamide], the IC50 under setting [1] was under 0.01 µM.
Still for that read-out and setting: the value for `C[C@H]1[C@@H](c2ccc(F)c(F)c2OC2CC(O)C2)[C@H](C(=O)Nc2cccnc2)O[C@@]1(C)C(F)(F)F` (stereo partly drawn) [Compound 654, (2R,3S,4S,5R)-3-(3,4-difluoro-2-((1S,3R)-3-hydroxycyclobutoxy)phenyl)-4,5-dimethyl-N-(pyridin-3-yl)-5-(trifluoromethyl)tetrahydrofuran-2-carboxamide] was under 0.01 µM; that for `CC(C)Oc1c(C2C(C(=O)Nc3cc(S(C)(=O)=O)ccn3)OC(C)(C(F)(F)F)C2C)ccc(F)c1F` (stereo not drawn) [Compound 115, 3-(3,4-difluoro-2-isopropoxy-phenyl)-4,5-dimethyl-N-(4-methylsulfonyl-2-pyridyl)-5-(trifluoromethyl)tetrahydrofuran-2-carboxamide] was at least 1 µM; that for `C[C@@H]1CN(C)CC(=O)N1c1cc(NC(=O)[C@@H]2O[C@@](C)(C(F)(F)F)[C@@H](C)[C@H]2c2ccc(F)c(F)c2OC(F)F)ccn1` [Compound 517, (2R,3S,4S,5R)-3-[2-(difluoromethoxy)-3,4-difluoro-phenyl]-N-[2-[(2R)-2,4-dimethyl-6-oxo-piperazin-1-yl]-4-pyridyl]-4,5-dimethyl-5-(trifluoromethyl)tetrahydrofuran-2-carboxamide] was under 0.01 µM.
Same read-out and setting: the value for `COc1c([C@H]2[C@H](C(=O)Nc3ccnc(N4CCC(N)C4=O)c3)O[C@@](C)(C(F)(F)F)[C@H]2C)ccc(F)c1F` (single isomer, unassigned) [Compound 497, rel-(2R*,3S*,4S*,5R*)-N-(2-(3-amino-2-oxopyrrolidin-1-yl)pyridin-4-yl)-3-(3,4-difluoro-2-methoxyphenyl)-4,5-dimethyl-5-(trifluoromethyl)tetrahydrofuran-2-carboxamide] was 0.01 to 0.1 µM.
In the case of `COc1c([C@H]2C[C@@](C)(C(F)(F)F)O[C@@H]2C(=O)Nc2ccnc(C(O)CO)c2)ccc(F)c1C` (single isomer, unassigned) [Compound 705], the IC50 under setting [2] was at least 1 µM.
`COc1c([C@H]2[C@H](C(=O)NCC3CCOC3)O[C@@](C)(C(F)(F)F)[C@H]2C)ccc(F)c1F` (stereo partly drawn) [Compound 279, (2R,3S,4S,5R)-3-(3,4-difluoro-2-methoxyphenyl)-4,5-dimethyl-N-((tetrahydrofuran-3-yl)methyl)-5-(trifluoromethyl)tetrahydrofuran-2-carboxamide]: under setting [1], the IC50 is at least 1 µM.
The same measure, in the same setting: the value for `COc1c([C@H]2[C@H](C(=O)NCC3CNC(=O)C3)O[C@@](C)(C(F)(F)F)[C@H]2C)ccc(F)c1F` (stereo partly drawn) [Compound 281, (2R,3S,4S,5R)-3-(3,4-difluoro-2-methoxyphenyl)-4,5-dimethyl-N-((5-oxopyrrolidin-3-yl)methyl)-5-(trifluoromethyl)tetrahydrofuran-2-carboxamide] was 0.1 to 1 µM.
Take `COc1c([C@H]2[C@H](C(=O)Nc3ccnc(N4C[C@@H]5CC[C@H](C4=O)N5C)c3)O[C@@](C)(C(F)(F)F)[C@H]2C)ccc(F)c1F` (single isomer, unassigned) [Compound 504, rel-(2R*,3S*,4S*,5R*)-3-(3,4-difluoro-2-methoxyphenyl)-4,5-dimethyl-N-(2-((1R,5S)-8-methyl-2-oxo-3,8-diazabicyclo[3.2.1]octan-3-yl)pyridin-4-yl)-5-(trifluoromethyl)tetrahydrofuran-2-carboxamide]: the IC50 under setting [1] was in the range of 0.01 to 0.1 µM.
